In article PMC8912030, “Secondary Metabolites with Anti-Inflammatory from the Roots of Cimicifuga taiwanensis” (Molecules, 2022):
Read-outs that look alike come from different tables or passages of the source.

Tests used:
[1] = system: LPS-activated NO production in RAW 264.7 macrophages; assay: Inhibition of LPS-induced NO production (Griess reagent assay, nitrite); assay type: cell-based, mouse; details: for NO inhibitory activity (in words): LPS-induced NO production in RAW 264.7; for IC50: Mus musculus, read-out: IC50 NO; for fold NO inhibitory activity compared with quercetin: ratio to quercetin IC50 34.58 μM
Experimental: The anti-inflammatory activities of the 5 isolates (2–6) in sufficient amounts were evaluated by examining their inhibitory effects on lipopolysaccharide (LPS)-induced inducible nitric oxide synthase (iNOS)-dependent NO 6 production in the murine macrophage cell line RAW 264.7 (Table 4). From the results of our anti-inflammatory tests, the following conclusions could be drawn.
(§1) The mouse macrophage cell line (RAW 264.7) was obtained from the Bioresource Collection and Research Center (BCRC 60001) and cultured at 37 °C in Dulbecco’s Modified Eagle’s Medium (DMEM) supplemented with 10% fetal bovine serum (Gibco), 4.5 g/L glucose, 4 mM glutamine, penicillin (100 units/mL), and streptomycin (100 μg/mL) in a humidified atmosphere in a 5% CO2 incubator. The cells were treated with 10, 25, and 50 μM of natural products in the presence of 1 μg/mL lipopolysaccharide (LPS, Sigma-Aldrich) for 20 h. The concentration of NO in the culture supernatants was determined to be nitrite, a major stable product of NO, by a Griess reagent assay, and cell viabilities were determined using the MTT assay as described previously.

RAW 264.7 macrophages = assay: Cell viability (MTT assay); assay type: cell-based, mouse
Experimental: (§2) The cytotoxic effects were tested using an MTT experiment.
as §1

[2] = Cell viability (MTT assay); assay type: cell-based, mouse; details: mouse
Experimental: as §2, §1

[3] = RAW264.7, RAW 264.7, 1 μg/mL LPS, 20 h, mean ± SEM (n = 4) of 3 independent experiments

SMILES | NO inhibitory activity (in words) [1] | IC50 [1, 3] | fold NO inhibitory activity compared with quercetin [1] | Cell Viability (% Control) (RAW 264.7 macrophages; 50 µM) | viability at 20 h, 50 µM [2] | NO inhibitory activity (in words) ([1]; listed as Cimicitaiwanin E) | IC50 ([1]; RAW264.7, 20 h) | Cell Viability (% Control) (RAW 264.7 macrophages; RAW 264.7, MTT, mean ± SEM, concentration not given in table (text: 50 μM)) | melting point
CC(C=CC1C(C)CC(O)CC1(C)C)=CC(=O)O [Compound 6, rel-(2E,4E)-5-((3S,5R,6R,)-4-hydroxy-2,2,6-trimethylcyclohexyl)-3-methylpenta-2,4-dienoic acid] | showed inhibitory activities | 15.4 ± 0.85 µM | two | 86.84 ± 2.95 % Control | 87% | – | – | – | –
CC1CC2OC3(OC2C(C)(C)O)C1C1(C)CCC24CC25C=CC(=O)C(C)(C)C5CC=C4C1(C)C3O (stereo not drawn) [Compound 5, cimicitaiwanin E] | moderate | – | – | 88.54 ± 1.50 % Control | 89% | showed inhibitory activities | 24.6 ± 4.97 µM | – | –
O=c1c(O)c(-c2ccc(O)c(O)c2)oc2cc(O)cc(O)c12 [Quercetin, quercetin, reference compound] | – | 34.6 ± 2.34 µM | – | – | – | – | – | 95.56 ± 1.91 % Control | –
CC(=O)OC(C)(C)C1OC23OC1CC(C)C2C1(C)C(O)CC2=C(CCC4C5(CCC(O5)C4(C)C)C2)C1(C)C3O (stereo not drawn) [Compound 2, 25-O-acetyl-12β-hydroxyacerinol] | – | 8.37 ± 3.25 µM | about four | 69.14 ± 2.87 % Control | < 80% | – | – | – | –
CC(=O)OC(C)(C)C1OC23OC1CC(C)C2C1(C)CC(=O)C2=C(C(O)CC4C5(CCC(O5)C4(C)C)C2)C1(C)C3O (stereo not drawn) [Compound 3, 25-O-acetyl-7β-hydroxy-11-oxoacerinol] | showed inhibitory activities | 6.54 ± 0.87 µM | five | 95.53 ± 3.39 % Control | 95% | – | – | – | 103 to 105 °C
CC(=O)OC(C)(C)C1OC23OC1CC(C)C2C1(C)CCC2=C(CCC4C(=CCC(OC5OCC(O)C(O)C5O)C4(C)C)C2)C1(C)C3O (stereo not drawn) [Compound 4, cimicitaiwanin D] | showed inhibitory activities | 10.1 ± 0.47 µM | three | 91.12 ± 4.22 % Control | 91% | – | – | – | –
